# Assay results taken from paper PMC12090182, “Repurposing of the RIPK1-Selective Benzo[1,4]oxazepin-4-one Scaffold for the Development of a Type III LIMK1/2 Inhibitor” (ACS Chemical Biology, 2025).
# How the values were obtained:
# Type in all cases: cell-based
# Settings in all cases: HEK-293T; 1 μM inhibitor, HEK293T cells
# RIPK1 = molecular target: T1, RIPK1 (Homo sapiens, UniProt Q13546)
# T1 construct: full-length LIMK1/2, RIPK1, BTK, and LRRK2 cloned in a frame in a NanoLuc-vector (Promega); host or cells: HEK293T
# T1 sequence (Q13546 1-671): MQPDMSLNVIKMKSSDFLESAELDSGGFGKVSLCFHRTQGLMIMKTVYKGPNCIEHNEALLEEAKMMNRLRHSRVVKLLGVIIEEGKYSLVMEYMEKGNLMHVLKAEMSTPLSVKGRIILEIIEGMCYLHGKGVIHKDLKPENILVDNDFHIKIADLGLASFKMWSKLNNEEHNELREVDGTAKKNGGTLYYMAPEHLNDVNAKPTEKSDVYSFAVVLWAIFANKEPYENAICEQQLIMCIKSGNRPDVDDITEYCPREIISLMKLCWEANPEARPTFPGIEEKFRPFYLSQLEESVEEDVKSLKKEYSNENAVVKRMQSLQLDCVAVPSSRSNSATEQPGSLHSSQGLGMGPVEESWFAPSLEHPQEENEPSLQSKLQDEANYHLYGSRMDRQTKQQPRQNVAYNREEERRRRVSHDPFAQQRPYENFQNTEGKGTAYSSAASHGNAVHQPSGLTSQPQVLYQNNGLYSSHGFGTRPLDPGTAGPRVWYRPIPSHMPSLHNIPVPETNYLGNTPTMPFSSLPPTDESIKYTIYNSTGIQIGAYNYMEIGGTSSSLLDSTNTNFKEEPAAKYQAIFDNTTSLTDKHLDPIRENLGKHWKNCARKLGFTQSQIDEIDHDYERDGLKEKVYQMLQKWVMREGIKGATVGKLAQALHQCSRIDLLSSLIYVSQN
# How it was run: (§1)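 Using transiently transfected HEK293T cells, the inhibitor (1 μM) is tested for displacing Tracer K10 from each expressed kinase after 20 h expression. Luminescence at donor and acceptor wavelengths yields occupancy.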
# PRKACA = PRKACA (Homo sapiens, UniProt P17612)
# How it was run: as §1
# MYLK3 = MYLK3 (Homo sapiens, UniProt Q32MK0)
# How it was run: as §1
# ICK = ICK (Homo sapiens, UniProt Q9UPZ9)
# How it was run: as §1
# EPHA6 = EPHA6 (Homo sapiens, UniProt Q9UF33)
# How it was run: as §1
# MAP3K9 = MAP3K9 (Homo sapiens, UniProt P80192)
# How it was run: as §1
# BTK = molecular target: T2, BTK (Homo sapiens, UniProt Q06187)
# T2 construct: full-length LIMK1/2, RIPK1, BTK, and LRRK2 cloned in a frame in a NanoLuc-vector (Promega); host or cells: HEK293T
# How it was run: as §1
# PKMYT1 = PKMYT1 (Homo sapiens, UniProt Q99640)
# How it was run: as §1
# BMP2K = BMP2K (Homo sapiens, UniProt Q9NSY1)
# How it was run: as §1
# MAP4K5 = MAP4K5 (Homo sapiens, UniProt Q9Y4K4)
# How it was run: as §1
# CHEK2 = CHEK2 (Homo sapiens, UniProt O96017)
# How it was run: as §1
# PLK3 = PLK3 (Homo sapiens, UniProt Q9H4B4)
# How it was run: as §1
# PAK4 = PAK4 (Homo sapiens, UniProt O96013)
# How it was run: as §1
# MAP3K21 = MAP3K21 (Homo sapiens, UniProt Q5TCX8)
# How it was run: as §1
# JNK3 = JNK3 (Homo sapiens, UniProt P53779)
# How it was run: as §1
# TNNI3K = TNNI3K (Homo sapiens, UniProt Q59H18)
# How it was run: as §1
# NEK2 = NEK2 (Homo sapiens, UniProt P51955)
# How it was run: as §1
# MYLK2 = MYLK2 (Homo sapiens, UniProt Q9H1R3)
# How it was run: as §1
# BRSK1 = BRSK1 (Homo sapiens, UniProt Q8TDC3)
# How it was run: as §1
# CSNK1G2 = CSNK1G2 (Homo sapiens, UniProt P78368)
# How it was run: as §1
# MLTK = MLTK (Homo sapiens, UniProt Q9NYL2)
# How it was run: as §1
# AURKA = AURKA (Homo sapiens, UniProt O14965)
# How it was run: as §1
# LCK = LCK (Homo sapiens, UniProt P06239)
# How it was run: as §1
# MARK2 = MARK2 (Homo sapiens, UniProt Q7KZI7)
# How it was run: as §1
# NTRK2 = NTRK2 (Homo sapiens, UniProt Q16620)
# How it was run: as §1
# FER = FER (Homo sapiens, UniProt P16591)
# How it was run: as §1
# RPS6KA1 = RPS6KA1 (Homo sapiens, UniProt Q15418)
# How it was run: as §1
# Sequence of TNNI3K (Q59H18 whole entry): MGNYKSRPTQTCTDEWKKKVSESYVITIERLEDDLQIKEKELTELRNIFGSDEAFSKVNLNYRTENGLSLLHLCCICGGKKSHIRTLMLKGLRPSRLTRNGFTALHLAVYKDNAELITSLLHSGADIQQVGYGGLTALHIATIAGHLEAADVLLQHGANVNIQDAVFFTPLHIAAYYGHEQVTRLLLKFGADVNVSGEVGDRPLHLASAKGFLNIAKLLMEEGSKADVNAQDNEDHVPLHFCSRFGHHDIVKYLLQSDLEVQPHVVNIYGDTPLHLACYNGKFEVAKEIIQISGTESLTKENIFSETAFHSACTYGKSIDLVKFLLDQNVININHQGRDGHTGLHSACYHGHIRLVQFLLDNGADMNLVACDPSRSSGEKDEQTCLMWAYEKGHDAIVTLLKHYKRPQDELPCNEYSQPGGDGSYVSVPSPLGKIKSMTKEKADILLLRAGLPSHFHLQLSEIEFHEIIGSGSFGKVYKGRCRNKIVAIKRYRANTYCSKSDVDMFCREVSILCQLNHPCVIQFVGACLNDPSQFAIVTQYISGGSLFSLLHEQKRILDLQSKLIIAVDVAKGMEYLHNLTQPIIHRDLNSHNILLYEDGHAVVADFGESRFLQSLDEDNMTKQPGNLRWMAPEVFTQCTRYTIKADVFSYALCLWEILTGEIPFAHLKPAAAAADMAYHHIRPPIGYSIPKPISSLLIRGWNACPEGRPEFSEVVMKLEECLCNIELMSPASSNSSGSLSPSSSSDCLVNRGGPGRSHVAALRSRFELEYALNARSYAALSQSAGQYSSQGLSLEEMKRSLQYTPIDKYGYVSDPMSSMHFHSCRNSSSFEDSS
# Sequence of CHEK2 (O96017 whole entry): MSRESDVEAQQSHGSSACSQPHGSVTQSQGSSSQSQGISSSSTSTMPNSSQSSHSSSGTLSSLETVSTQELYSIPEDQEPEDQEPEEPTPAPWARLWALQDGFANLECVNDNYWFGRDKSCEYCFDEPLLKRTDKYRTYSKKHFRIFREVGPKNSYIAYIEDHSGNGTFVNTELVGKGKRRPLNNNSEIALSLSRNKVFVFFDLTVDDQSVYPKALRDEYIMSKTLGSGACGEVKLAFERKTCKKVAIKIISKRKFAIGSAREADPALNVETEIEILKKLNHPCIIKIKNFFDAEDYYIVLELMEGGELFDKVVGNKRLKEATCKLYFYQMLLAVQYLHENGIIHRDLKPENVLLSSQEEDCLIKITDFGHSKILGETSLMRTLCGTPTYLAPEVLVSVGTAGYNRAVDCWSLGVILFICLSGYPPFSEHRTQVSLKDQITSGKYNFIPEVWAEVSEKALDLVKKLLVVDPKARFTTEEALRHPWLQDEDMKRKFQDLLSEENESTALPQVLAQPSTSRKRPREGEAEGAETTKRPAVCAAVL
# Sequence of MAP3K9 (P80192 whole entry): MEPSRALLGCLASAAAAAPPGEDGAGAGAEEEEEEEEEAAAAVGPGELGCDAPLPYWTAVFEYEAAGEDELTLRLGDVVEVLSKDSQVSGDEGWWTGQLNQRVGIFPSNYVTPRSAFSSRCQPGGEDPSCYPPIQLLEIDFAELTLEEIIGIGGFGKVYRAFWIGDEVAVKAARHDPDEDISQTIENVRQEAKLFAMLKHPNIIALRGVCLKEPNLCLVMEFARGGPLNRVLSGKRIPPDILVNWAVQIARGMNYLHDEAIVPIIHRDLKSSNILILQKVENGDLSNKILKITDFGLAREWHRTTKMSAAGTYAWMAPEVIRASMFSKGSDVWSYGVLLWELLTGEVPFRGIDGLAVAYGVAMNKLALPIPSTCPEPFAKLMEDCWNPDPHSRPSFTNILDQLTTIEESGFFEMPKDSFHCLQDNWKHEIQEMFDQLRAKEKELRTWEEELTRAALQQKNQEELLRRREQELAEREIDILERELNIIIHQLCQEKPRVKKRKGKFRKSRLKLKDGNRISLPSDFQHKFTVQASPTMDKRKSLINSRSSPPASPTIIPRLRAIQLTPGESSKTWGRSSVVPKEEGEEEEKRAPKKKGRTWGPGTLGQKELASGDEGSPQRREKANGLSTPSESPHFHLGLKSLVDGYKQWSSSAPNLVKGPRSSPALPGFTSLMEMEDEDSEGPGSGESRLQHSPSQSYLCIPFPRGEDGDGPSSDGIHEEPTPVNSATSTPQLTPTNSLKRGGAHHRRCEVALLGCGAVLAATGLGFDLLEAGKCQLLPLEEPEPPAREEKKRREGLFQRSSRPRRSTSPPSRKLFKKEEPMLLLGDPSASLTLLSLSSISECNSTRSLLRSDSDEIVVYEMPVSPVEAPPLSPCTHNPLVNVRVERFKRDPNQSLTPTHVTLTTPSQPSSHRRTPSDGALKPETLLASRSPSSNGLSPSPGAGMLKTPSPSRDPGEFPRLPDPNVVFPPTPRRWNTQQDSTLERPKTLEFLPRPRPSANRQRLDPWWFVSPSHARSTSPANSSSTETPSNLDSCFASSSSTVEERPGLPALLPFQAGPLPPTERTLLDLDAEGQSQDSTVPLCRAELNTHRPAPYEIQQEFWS
# Sequence of LCK (P06239 whole entry): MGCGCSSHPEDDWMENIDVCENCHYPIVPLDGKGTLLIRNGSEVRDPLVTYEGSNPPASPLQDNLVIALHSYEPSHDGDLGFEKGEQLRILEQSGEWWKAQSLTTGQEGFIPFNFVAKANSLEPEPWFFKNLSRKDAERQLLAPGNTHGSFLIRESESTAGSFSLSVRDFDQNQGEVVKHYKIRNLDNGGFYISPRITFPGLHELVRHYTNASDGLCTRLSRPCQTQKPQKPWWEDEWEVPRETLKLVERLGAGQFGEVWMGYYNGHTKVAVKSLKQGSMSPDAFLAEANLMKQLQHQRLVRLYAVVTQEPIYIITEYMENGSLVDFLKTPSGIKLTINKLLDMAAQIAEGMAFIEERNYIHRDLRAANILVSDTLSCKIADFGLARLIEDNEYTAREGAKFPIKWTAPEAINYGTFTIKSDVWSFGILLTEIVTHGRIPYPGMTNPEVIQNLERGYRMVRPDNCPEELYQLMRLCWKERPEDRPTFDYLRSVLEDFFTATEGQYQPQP
# Sequence of MAP3K21 (Q5TCX8 whole entry): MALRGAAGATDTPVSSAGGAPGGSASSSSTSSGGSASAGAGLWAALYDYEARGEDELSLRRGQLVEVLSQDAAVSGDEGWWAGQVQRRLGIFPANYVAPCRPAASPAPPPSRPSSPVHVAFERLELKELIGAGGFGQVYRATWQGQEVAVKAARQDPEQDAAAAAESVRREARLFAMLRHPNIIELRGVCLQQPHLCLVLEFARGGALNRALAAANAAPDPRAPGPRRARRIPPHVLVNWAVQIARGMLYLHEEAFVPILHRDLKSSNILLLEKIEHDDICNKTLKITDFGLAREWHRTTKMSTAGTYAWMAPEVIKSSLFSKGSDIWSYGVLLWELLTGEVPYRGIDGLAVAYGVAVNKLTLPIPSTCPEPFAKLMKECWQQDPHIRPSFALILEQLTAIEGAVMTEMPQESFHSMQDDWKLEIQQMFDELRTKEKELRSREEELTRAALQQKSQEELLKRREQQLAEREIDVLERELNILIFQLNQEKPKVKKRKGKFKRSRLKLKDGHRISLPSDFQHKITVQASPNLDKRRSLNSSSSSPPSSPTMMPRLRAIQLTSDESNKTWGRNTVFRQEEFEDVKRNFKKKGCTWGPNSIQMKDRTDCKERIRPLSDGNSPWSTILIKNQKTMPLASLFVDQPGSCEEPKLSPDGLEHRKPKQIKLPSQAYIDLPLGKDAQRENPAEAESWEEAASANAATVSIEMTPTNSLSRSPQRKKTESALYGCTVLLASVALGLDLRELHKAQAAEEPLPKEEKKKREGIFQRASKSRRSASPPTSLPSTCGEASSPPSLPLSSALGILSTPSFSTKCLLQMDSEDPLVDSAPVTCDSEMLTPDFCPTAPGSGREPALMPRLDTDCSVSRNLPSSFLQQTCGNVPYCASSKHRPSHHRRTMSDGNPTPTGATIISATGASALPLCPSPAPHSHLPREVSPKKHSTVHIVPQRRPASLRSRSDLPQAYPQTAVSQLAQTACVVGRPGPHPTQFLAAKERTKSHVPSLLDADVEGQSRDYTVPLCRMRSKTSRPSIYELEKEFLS
# Sequence of MYLK2 (Q9H1R3 whole entry): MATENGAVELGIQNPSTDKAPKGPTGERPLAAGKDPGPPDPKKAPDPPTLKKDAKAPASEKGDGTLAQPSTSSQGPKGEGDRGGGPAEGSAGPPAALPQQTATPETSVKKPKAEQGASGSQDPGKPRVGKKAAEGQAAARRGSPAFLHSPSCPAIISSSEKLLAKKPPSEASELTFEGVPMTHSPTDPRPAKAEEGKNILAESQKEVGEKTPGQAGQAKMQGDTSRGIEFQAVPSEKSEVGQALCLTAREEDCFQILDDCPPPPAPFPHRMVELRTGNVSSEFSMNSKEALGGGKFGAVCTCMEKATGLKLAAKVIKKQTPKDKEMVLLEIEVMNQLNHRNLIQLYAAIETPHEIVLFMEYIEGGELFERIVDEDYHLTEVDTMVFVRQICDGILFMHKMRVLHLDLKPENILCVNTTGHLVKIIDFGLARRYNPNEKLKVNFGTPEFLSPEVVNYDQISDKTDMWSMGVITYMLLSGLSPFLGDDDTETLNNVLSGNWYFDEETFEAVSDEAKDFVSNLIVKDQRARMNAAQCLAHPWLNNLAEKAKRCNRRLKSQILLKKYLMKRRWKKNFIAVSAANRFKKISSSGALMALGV
# Sequence of NEK2 (P51955 whole entry): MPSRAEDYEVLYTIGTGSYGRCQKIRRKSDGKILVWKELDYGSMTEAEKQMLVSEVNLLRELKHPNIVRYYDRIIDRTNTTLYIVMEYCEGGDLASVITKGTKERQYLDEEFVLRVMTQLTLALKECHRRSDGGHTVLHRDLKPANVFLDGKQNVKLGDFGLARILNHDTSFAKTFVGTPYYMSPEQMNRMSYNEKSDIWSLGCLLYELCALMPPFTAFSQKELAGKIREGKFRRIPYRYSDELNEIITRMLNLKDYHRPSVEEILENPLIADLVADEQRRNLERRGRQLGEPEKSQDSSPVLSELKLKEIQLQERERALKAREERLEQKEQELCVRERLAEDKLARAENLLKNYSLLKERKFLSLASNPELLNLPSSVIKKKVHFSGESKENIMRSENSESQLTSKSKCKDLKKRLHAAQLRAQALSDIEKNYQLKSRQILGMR
smiles,measurement,setting,value
"CN1C(=O)[C@@H](N2CCc3c(nn(Cc4ccccc4)c3C(N)=O)C2=O)COc2cc(Cl)ccc21 [Compound 10, (S)-2-benzyl-6-(8-chloro-5-methyl-4-oxo-2,3,4,5-tetrahydrobenzo[b][1,4]oxazepin-3-yl)-7-oxo-4,5,6,7-tetrahydro-2H-pyrazolo[3,4-c]pyridine-3-carboxamide]",receptor occupancy at 1 µM,RIPK1,78.4%
same,receptor occupancy at 1 µM,PRKACA,-2.16%
same,receptor occupancy at 1 µM,MYLK3,3.25%
same,receptor occupancy at 1 µM,ICK,3.76%
same,receptor occupancy at 1 µM,EPHA6,-0.834%
same,receptor occupancy at 1 µM,MAP3K9,8.3%
same,receptor occupancy at 1 µM,BTK,-8.22%
same,receptor occupancy at 1 µM,PKMYT1,-7.45%
same,receptor occupancy at 1 µM,BMP2K,-6.67%
same,receptor occupancy at 1 µM,MAP4K5,16.7%
same,receptor occupancy at 1 µM,CHEK2,-1.73%
same,receptor occupancy at 1 µM,PLK3,2.41%
same,receptor occupancy at 1 µM,PAK4,3.71%
same,receptor occupancy at 1 µM,MAP3K21,-2.72%
same,receptor occupancy at 1 µM,JNK3,3.53%
same,receptor occupancy at 1 µM,TNNI3K,-0.0649%
same,receptor occupancy at 1 µM,NEK2,-8.89%
same,receptor occupancy at 1 µM,MYLK2,4.26%
same,receptor occupancy at 1 µM,BRSK1,3.37%
same,receptor occupancy at 1 µM,CSNK1G2,3.57%
same,receptor occupancy at 1 µM,MLTK,-2.56%
same,receptor occupancy at 1 µM,AURKA,-7.12%
same,receptor occupancy at 1 µM,LCK,-0.25%
same,receptor occupancy at 1 µM,MARK2,16.3%
same,receptor occupancy at 1 µM,NTRK2,1.19%
same,receptor occupancy at 1 µM,FER,15.8%
same,receptor occupancy at 1 µM,RPS6KA1,5.2%
